The nature of the data set: in vitro. To be noted: human, hek293t cells.
In the case of `C=CC(=O)NCCC(=O)N1CCC2(CC(=O)c3ccccc3O2)C1` (centres unmarked) [1-F12, N-(3-oxo-3-{4-oxo-3,4-dihydrospiro[1-benzopyran-2,3'-pyrrolidin]-1'-yl}propyl)prop-2-enamide], the viability at 48 h, 25 µM amounted to 82.1%.
Regarding `C=CC(=O)N(Cc1cc(F)cc(Cl)c1)C(C)C1CCOCC1` (centres unmarked) [1-F13, N-[(3-chloro-5-fluorophenyl)methyl]-N-[1-(oxan-4-yl)ethyl]prop-2-enamide], the viability at 48 h, 25 µM came out at 110%.
The same measure for `C=CC(=O)Nc1cn(C)nc1OC(C)C` [1-F14, N-[1-methyl-3-(propan-2-yloxy)-1H-pyrazol-4-yl]prop-2-enamide]: 71.2%; for `C=CC(=O)N(Cc1nonc1C)CC1C(C)=CCCC1C` (centres unmarked) [1-F15, N-[(2,6-dimethylcyclohex-2-en-1-yl)methyl]-N-[(4-methyl-1,2,5-oxadiazol-3-yl)methyl]prop-2-enamide]: 108%; for `C=CC(=O)NC1CCCCC12CCCC2` (centres unmarked) [1-F16, N-{spiro[4.5]decan-6-yl}prop-2-enamide]: 77.6%.
Consider `C=CC(=O)NCC12CC3CC(CC(C3)C1)C2` [1-F17, N-[(adamantan-1-yl)methyl]prop-2-enamide], for which the viability at 48 h, 25 µM was determined as 110%.
Regarding `C=CC(=O)NC1(c2cc(C)no2)CCOCC1` [1-F18, N-[4-(3-methyl-1,2-oxazol-5-yl)oxan-4-yl]prop-2-enamide], the viability at 48 h, 25 µM amounted to 68.5%.
The same measure for `C=CC(=O)N1CCCC1c1c(C)nn(CC(C)C)c1Cl` (centres unmarked) [1-F19, 1-{2-[5-chloro-3-methyl-1-(2-methylpropyl)-1H-pyrazol-4-yl]pyrrolidin-1-yl}prop-2-en-1-one]: 119%; for `C=CC(=O)N1CCOC(Cn2cncn2)C1` (centres unmarked) [1-F20, 1-{2-[(1H-1,2,4-triazol-1-yl)methyl]morpholin-4-yl}prop-2-en-1-one]: 85.3%.
The same measure for `C=CC(=O)Nc1sc2c(c1C(N)=O)CCCCC2` [1-F21, 2-(prop-2-enamido)-4H,5H,6H,7H,8H-cyclohepta[b]thiophene-3-carboxamide]: 113%; for `C=CC(=O)NCC1(C)CCC(C)(C)CC1` [1-F22, N-[(1,4,4-trimethylcyclohexyl)methyl]prop-2-enamide]: 83.2%.
Regarding `C=CC(=O)N1CSCC1C(=O)N(C)C` (centres unmarked) [1-G03, N,N-dimethyl-3-(prop-2-enoyl)-1,3-thiazolidine-4-carboxamide], the viability at 48 h, 25 µM is 75.4%.
The same measure for `C=CC(=O)Nc1ccccc1Sc1nncs1` [1-G04, N-[2-(1,3,4-thiadiazol-2-ylsulfanyl)phenyl]prop-2-enamide]: 32.3%; for `C=CC(=O)NC(c1ccccc1)C1CCC1` (centres unmarked) [1-G05, N-[cyclobutyl(phenyl)methyl]prop-2-enamide]: 76.5%; for `C=CC(=O)Nc1ccc(O)c(C(=O)O)c1` [1-G06, 2-hydroxy-5-(prop-2-enamido)benzoic acid]: 70.3%.
The result for `C=CC(=O)NCc1nncn1-c1ccccc1` [1-G07, N-[(4-phenyl-4H-1,2,4-triazol-3-yl)methyl]prop-2-enamide] reads 77.3%; that for `C=CC(=O)N1CCCC1` [1-G08, 1-(pyrrolidin-1-yl)prop-2-en-1-one], 70.2%.
The same measure for `C=CC(=O)N(Cc1cn(C2CCC2)nn1)c1ccc(F)cc1` [1-G09, N-[(1-cyclobutyl-1H-1,2,3-triazol-4-yl)methyl]-N-(4-fluorophenyl)prop-2-enamide]: 37.6%; for `C=CC(=O)Nc1cccc2ccccc12` [1-G10, N-(naphthalen-1-yl)prop-2-enamide]: 53.4%.
As for `C=CC(=O)Nc1nc2cc(C(F)(F)F)ccc2n1Cc1ccco1` [1-G11, N-{1-[(furan-2-yl)methyl]-5-(trifluoromethyl)-1H-1,3-benzodiazol-2-yl}prop-2-enamide], the viability at 48 h, 25 µM turned out to be 72.5%.
The same measure for `C=CC(=O)N1CCCC(C(=O)O)C1` (centres unmarked) [1-G12, 1-(prop-2-enoyl)piperidine-3-carboxylic acid]: 60.4%.
The result for `C=CC(=O)Nc1ccc2c(c1)N(C)CC2` [1-G13, N-(1-methyl-2,3-dihydro-1H-indol-6-yl)prop-2-enamide] reads 67.7%; that for `C=CC(=O)Nc1cccc(C(=O)C(F)F)c1` [1-G14, N-[3-(2,2-difluoroacetyl)phenyl]prop-2-enamide], 50.4%.
The result for `C=CC(=O)N1CCN(S(C)(=O)=O)[C@H](C)C1` [1-G15, 1-[(3R)-4-methanesulfonyl-3-methylpiperazin-1-yl]prop-2-en-1-one] reads 101%; that for `C=CC(=O)NCC1(C)CCS(=O)(=O)CC1` [1-G16, N-[(4-methyl-1,1-dioxo-1lambda6-thian-4-yl)methyl]prop-2-enamide], 83.1%; that for `C=CC(=O)Nc1cnc(C2CCCC2)nc1` [1-G17, N-(2-cyclopentylpyrimidin-5-yl)prop-2-enamide], 33%.
As to `C=CC(=O)NCc1nc2c(s1)CCCC2` [1-G18, N-[(4,5,6,7-tetrahydro-1,3-benzothiazol-2-yl)methyl]prop-2-enamide], the viability at 48 h, 25 µM was 95.8%.
`C=CC(=O)Nc1cnn2cc(C)cnc12` [1-G19, N-{6-methylpyrazolo[1,5-a]pyrimidin-3-yl}prop-2-enamide]: the viability at 48 h, 25 µM came out at 96.4%.
The same measure for `C=CC(=O)Nc1ccc2c(c1)OCCCO2` [1-G20, N-(3,4-dihydro-2H-1,5-benzodioxepin-7-yl)prop-2-enamide]: 115%; for `C=CC(=O)NCc1cn(C)c2ccccc12` [1-G21, N-[(1-methyl-1H-indol-3-yl)methyl]prop-2-enamide]: 107%.
The same measure for `C=CC(=O)NC1CCc2nc(CC)nn2C1` (centres unmarked) [1-G22, N-{2-ethyl-5H,6H,7H,8H-[1,2,4]triazolo[1,5-a]pyridin-6-yl}prop-2-enamide]: 147%.
The same measure for `C=CC(=O)NC(C)(C)c1nc(-c2ccccc2F)c(C)s1` [1-H04, N-{2-[4-(2-fluorophenyl)-5-methyl-1,3-thiazol-2-yl]propan-2-yl}prop-2-enamide]: 73.5%; for `C=CC(=O)NCC(=O)N1CCCO1` [1-H05, N-[2-(1,2-oxazolidin-2-yl)-2-oxoethyl]prop-2-enamide]: 98.5%.
As for `C=CC(=O)N1CCC(C2CCOC2)C1` (centres unmarked) [1-H06, 1-[3-(oxolan-3-yl)pyrrolidin-1-yl]prop-2-en-1-one], the viability at 48 h, 25 µM was 70.3%.
Take `C=CC(=O)NC[C@H]1CCCN1S(C)(=O)=O` [1-H07, N-{[(2R)-1-methanesulfonylpyrrolidin-2-yl]methyl}prop-2-enamide]: the viability at 48 h, 25 µM turned out to be 99.1%.
`C=CC(=O)NCC1CCOC1` (centres unmarked) [1-H08, N-[(oxolan-3-yl)methyl]prop-2-enamide]: the viability at 48 h, 25 µM stood at 69.4%.
On to `C=CC(=O)N(Cc1cn(C)nc1CC)C1CCCCCC1` [1-H09, N-cycloheptyl-N-[(3-ethyl-1-methyl-1H-pyrazol-4-yl)methyl]prop-2-enamide], for which the viability at 48 h, 25 µM came to 84.9%.
The same measure for `C=CC(=O)NC(CN1CCCS1(=O)=O)C1CC1` (centres unmarked) [1-H10, N-[1-cyclopropyl-2-(1,1-dioxo-1lambda6,2-thiazolidin-2-yl)ethyl]prop-2-enamide]: 100%.
